Experimental data from patent USRE34313E, “Pharmaceutical compositions” (priority 1983, dated 1993).
Read-outs that look alike come from different tables or passages of the source.

Experiments:
Human transferrin = assay: Mobilisation of iron from transferrin; type: biochemical; details: 4×10^-3 M compound, 59Fe(III) transferrin 10^-5 M; for Percentage of iron removed from transferrin, 6 hours: tris HCl pH 7.4, 6 hours; for Percentage of iron removed from transferrin, 24 hours: tris HCl pH 7.4, 24 hours
Protocol: The solution was then dialysed against phosphate buffered saline for 24 hours. The ^59 Fe remaining in the dialysis tube was then […]. For comparative purposes, this procedure was repeated with desferrioxamine and EDTA.

inverted rat jejunal sac = assay: In vitro permeation of rat jejunal sac by iron complexes; details: uptake into serosal space of everted rat jejunal sac, 37° C., up to 1 hour, relative to ferric chloride as 1
Protocol: The iron uptake into the serosal space of the inverted rat jejunal sac was compared for various iron compounds. Rats (male Sprague Dawley, 60 g) were killed and the jejunum removed, everted and cut into three segments (4 cm length). The segments were tied at both ends and filled with Krebs Ringer buffer (0.2 ml) and incubated in Krebs Ringer buffer containing ^59 Fe complexes at 37° C. for periods up to 1 hour. The contents of the sac were counted for ^59 Fe and measured spectrophotometrically.

physchem = details: pH 7.4; for Partition coefficient Kpart, Iron complex [FeIII-(compound)3]: 100 uM; for logD at 100 µM: tris hydrochloride 20 mm
Protocol: Acid washed glassware is used throughout and, following mixing of 5 ml of the 10^-4 M aqueous solution with 5 ml n-octanol for 1 minute, the aqueous n-octanol mixture is centrifuged at 1,000 g for 30 seconds. The two resulting phases are separated for a concentration determination by spectrophotometry on each. For the free hydroxypyridones, the range 220-340 nm is used for concentration determinations whilst for the iron complexes, the range […] is used.

Horse spleen ferritin [1] = assay: Mobilisation of iron from ferritin; type: biochemical; details: 3×10^-3 M pyridone, ferritin 10^-6 M, pH 7.4, dialysis
Protocol: Horse spleen ferritin (Sigma) was without further purification and its iron content was estimated spectrophotometrically at 420 nm. The ferritin solution in phosphate buffered saline (Dulbecco-OXOID, 10^-6 M, pH 7.4) was enclosed in a Visking dialysis tube and dialysed against a 3×10^-3 M buffered solution of one of various pyridones as indicated in Table 2. The absorption spectrum of the resulting iron(III) complex in the dialysis solution was recorded after 6 and 24 hours. For comparative purposes, the procedure was repeated using a blank control.

[2] = log Ksol, affinity for iron(III); type: physicochemical
Excerpt: In order to solubilise iron(III) hydroxide, log Ksol must be greater than 0 and in order to remove iron from transferrin, log Ksol should be in excess of 6.0.

Horse spleen ferritin [3] = details: cited from earlier work
Apotransferrin = assay: Ability of iron complexes to donate iron to apotransferrin; type: biochemical; details: complex 10^-4 M, apotransferrin 10^-4 M, tris hydrochloride pH 7.4, 37° C., 10 minutes
Protocol: Apotransferrin (10^-4 M) and the iron complex of 1-hydroxy-4-methoxypyrid-4-one (10^-4 M; prepared as described in Example 7) were incubated together in tris hydrochloride (50 mM, buffered to pH 7.4) at 37° C. for 10 minutes when a 1 ml aliquot was removed from the medium and added to a PD10 colum. 0.5 ml fractions were collected directly into scintillation vials for counting.

Mice = assay: In vivo test of iron binding capacity: excretion of 59Fe in iron-loaded mice; details: control = 100% excretion
Protocol: Mice were injected intraperitoneally with iron dextran (2 mg) at weekly intervals over a four week period. Two weeks after the final injection, the mice were injected via the tail vein with ^59 Fe Lactoferrin (human lactoferrin, 1 mg per injection 2 μCi). The mice were then caged individually. After a ten day period, 1,4-hydroxypyrid-2-one was administered to groups of 8 mice at 10 mg per mouse either intraperitoneally or intragastrically (in each case 3 of the mice received only one dose whilst 5 received 2 doses at a 24 hour interval). The excretion of iron was recorded at either 12 or 24 hourly intervals over a three day period before and a two day period after administration of the compound. For comparative purposes, the procedure was repeated with a blank control and with desferrioxamine, also at 10 mg per mouse (the intraperitoneally treated mice receiving one dose of desferrioxamine and the intragastrically treated mice two doses at a 24 hour interval).
The results are shown in Table 4, being given on the basis of the control representing 100% excretion, and illustrate the particular advantage of the pyridones as compared with desferrioxamine for oral administration. […] However, this is not the case here, the large SD values being a consequence of the large range among the positive responses.

Partition coefficient Kpart, Iron complex [FeIII-(compound)3] (physchem)	logD at 100 µM (physchem)	log Ksol [2]	SMILES	Percentage of iron removed from transferrin, 6 hours (Human transferrin)	Percentage of iron removed from transferrin, 24 hours (Human transferrin)	Percentage of iron removed from ferritin, 6 hours (Horse spleen ferritin [1])	Percentage of iron removed from ferritin, 24 hours (Horse spleen ferritin [1])	also measured
–	–	–	O=C(O)CN(CCN(CC(=O)O)CC(=O)O)CC(=O)O [EDTA, ethylenediamine tetra-acetic acid, reference compound]	27%	67%	–	–	–
–	–	–	O=C([O-])[C@H](O)[C@@H](O)[C@H](O)[C@H](O)CO.O=C([O-])[C@H](O)[C@@H](O)[C@H](O)[C@H](O)CO.[Fe+2] [Fe^II gluconate]	–	–	–	–	Relative Iron Uptake (inverted rat jejunal sac): 1.6
0.6	-0.854	–	COCCOc1ccn(O)c(=O)c1 [1-hydroxy-4-(2'-methoxyethoxy)-pyrid-2-one]	72%	75%	2%	8%	–
–	–	6.0	CC(=O)N(O)CCCCCNC(=O)CCC(=O)N(O)CCCCCNC(=O)CCC(=O)N(O)CCCCCN [Desferrioxamine, desferrioxamine, reference compound]	17%	22%	–	–	Percentage of iron removed from ferritin, 6 hours (Horse spleen ferritin [3]; 1 mM desferrioxamine, similar test from literature (Crichton et al)): 1.5%
–	–	–	COc1ccn([O-])c(=O)c1.COc1ccn([O-])c(=O)c1.COc1ccn([O-])c(=O)c1.[Fe+3]	–	–	–	–	iron removed from the iron complex (donated to apotransferrin) (Apotransferrin): over 90%
4.85	-0.824	11.3	COc1ccn(O)c(=O)c1 [1-hydroxy-4-methoxypyrid-2-one]	70%	71%	13%	46%	–
–	–	–	[Cl][Fe]([Cl])[Cl] [FeCl3, ferric chloride]	–	–	–	–	Relative Iron Uptake (inverted rat jejunal sac): 1
–	–	2.0	O=C(O)CN(CCN(CC(=O)O)CC(=O)O)CCN(CC(=O)O)CC(=O)O [diethylenetriamine pentaacetic acid, reference compound]	–	–	–	–	–
–	–	–	O=C(NCCCCN(CCCNC(=O)c1cc(S(=O)(=O)O)cc(O)c1O)C(=O)c1cc(S(=O)(=O)O)cc(O)c1O)c1cc(S(=O)(=O)O)cc(O)c1O [LICAMS]	–	–	–	–	Percentage of iron removed from ferritin, 6 hours (Horse spleen ferritin [3]; 6 mM LICAMS + 12 mM ascorbic acid, similar test from literature (Tufano et al)): 7%

SMILES	Partition coefficient Kpart, Iron complex [FeIII-(compound)3] (physchem)	logD at 100 µM (physchem)	log Ksol [2]	Percentage of iron removed from transferrin, 6 hours (Human transferrin)	Percentage of iron removed from transferrin, 24 hours (Human transferrin)	Percentage of iron removed from ferritin, 6 hours (Horse spleen ferritin [1])	Percentage of iron removed from ferritin, 24 hours (Horse spleen ferritin [1])	also measured
O=c1cc(O)ccn1O [1,4-dihydroxypyrid-2-one]	0.04	-1.4	9.9	80%	91%	22%	54%	Excretion of 59Fe ± SD, Intraperitoneal Administration (Mice; 10 mg per mouse i.p.): 195 ± 57%; Excretion of 59Fe ± SD, Intragastric Administration (Mice; 10 mg per mouse intragastrically): 166 ± 40%
